Laboratory results from PMC8308925 (Pharmaceuticals, 2021).
≈ marks a conversion by molar mass, not a printed value. Where two headings read alike, the source gives them in different places. Each block holds one molecule with its values, some of them ahead of it.

Legend:
OATP1B3 [1] = biological target: T1, OATP1B3 (Homo sapiens, UniProt Q9NPD5); assay: in vitro
T1 sequence (Q9NPD5 1-702): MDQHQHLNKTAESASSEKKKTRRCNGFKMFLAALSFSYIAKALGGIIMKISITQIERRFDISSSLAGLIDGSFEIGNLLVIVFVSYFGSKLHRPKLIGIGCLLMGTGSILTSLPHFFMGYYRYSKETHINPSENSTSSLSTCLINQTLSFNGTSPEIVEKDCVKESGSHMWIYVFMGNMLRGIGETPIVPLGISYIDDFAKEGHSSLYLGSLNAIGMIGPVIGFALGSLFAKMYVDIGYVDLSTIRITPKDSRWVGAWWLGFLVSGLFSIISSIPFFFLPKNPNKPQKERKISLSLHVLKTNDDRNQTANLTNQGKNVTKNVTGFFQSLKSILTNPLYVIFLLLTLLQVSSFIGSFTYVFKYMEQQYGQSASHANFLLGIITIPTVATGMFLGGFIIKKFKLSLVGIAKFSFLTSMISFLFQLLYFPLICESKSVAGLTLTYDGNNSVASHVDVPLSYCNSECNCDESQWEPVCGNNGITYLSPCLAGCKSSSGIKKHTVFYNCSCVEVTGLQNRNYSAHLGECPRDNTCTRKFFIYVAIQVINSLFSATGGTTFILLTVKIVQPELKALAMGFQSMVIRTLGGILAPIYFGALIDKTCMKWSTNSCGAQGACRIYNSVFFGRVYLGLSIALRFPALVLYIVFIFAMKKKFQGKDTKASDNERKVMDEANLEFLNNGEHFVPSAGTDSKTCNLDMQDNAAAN
Protocol: (§1) For the experiments, 0.8 × 10^5 cells per well were seeded in poly-D-lysine coated 24-well plates, except for HEK293-ASBT cells, where 1 × 10^5 cells per well were seeded in poly-D-lysine coated 24-well plates. After incubation for 48 h, the medium was removed and the cells were washed with DPBS and preincubated for 10 min in DPBS at 37 °C.
(§2) Cells were disintegrated in 150 µL of 70% acetonitrile containing internal standard (IS; 200 nM of chenodeoxycholic acid). The cells were sonicated for 3 s and centrifuged at 13,000 rpm for 10 min. An aliquot (5 µL) from the supernatant (100 µL) was injected into LC-MS/MS system.
(§3) The sample preparation method is as stated above.
(§4) Vmax represents the maximum velocity at saturating substrate concentration, [S] represents the substrate concentration, Km represents the substrate concentration at half Vmax, and CLdiffusion represents the passive diffusion clearance.

CYP2E1 = CYP2E1 (Homo sapiens, UniProt P05181); assay: biochemical
CYP2E1, sequence (P05181 whole entry): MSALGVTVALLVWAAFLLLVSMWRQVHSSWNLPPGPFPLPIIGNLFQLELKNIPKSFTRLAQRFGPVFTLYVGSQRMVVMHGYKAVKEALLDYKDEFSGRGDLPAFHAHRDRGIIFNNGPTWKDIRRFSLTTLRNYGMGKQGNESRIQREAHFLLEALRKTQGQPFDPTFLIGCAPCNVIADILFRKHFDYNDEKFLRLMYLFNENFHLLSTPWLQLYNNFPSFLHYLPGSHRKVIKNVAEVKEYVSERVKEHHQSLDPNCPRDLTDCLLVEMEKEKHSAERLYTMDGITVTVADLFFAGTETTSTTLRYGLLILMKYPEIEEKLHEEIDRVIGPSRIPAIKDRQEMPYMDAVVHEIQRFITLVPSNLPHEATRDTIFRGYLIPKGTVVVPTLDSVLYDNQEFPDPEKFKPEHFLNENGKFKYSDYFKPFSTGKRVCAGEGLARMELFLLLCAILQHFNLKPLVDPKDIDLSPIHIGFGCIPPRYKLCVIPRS

NTCP = biological target: T2, NTCP (Homo sapiens, UniProt Q14973); assay: Uptake of MT921 and probe substrate in HEK 293-NTCP cells (substrate specificity, kinetics)
T2 sequence (Q14973 1-349): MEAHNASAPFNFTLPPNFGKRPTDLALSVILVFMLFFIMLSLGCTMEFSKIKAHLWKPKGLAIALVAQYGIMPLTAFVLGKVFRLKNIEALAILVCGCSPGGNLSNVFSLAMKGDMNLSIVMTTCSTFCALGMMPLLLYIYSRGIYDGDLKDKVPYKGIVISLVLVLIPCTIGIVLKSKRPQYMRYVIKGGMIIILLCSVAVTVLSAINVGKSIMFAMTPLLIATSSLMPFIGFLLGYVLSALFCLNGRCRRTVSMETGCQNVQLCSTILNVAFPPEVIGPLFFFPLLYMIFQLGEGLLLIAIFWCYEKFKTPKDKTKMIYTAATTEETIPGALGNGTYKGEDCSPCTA
Protocol: as §1, §2, §3, §4

ASBT [2] = biological target: T3, ASBT (Homo sapiens, UniProt Q12908); assay: Uptake of MT921 and probe substrate in HEK 293-ASBT cells (substrate specificity, kinetics); format: in vitro ADME; settings: ASBT-mediated MT921 uptake, 5–100 µM
T3 sequence (Q12908 1-348): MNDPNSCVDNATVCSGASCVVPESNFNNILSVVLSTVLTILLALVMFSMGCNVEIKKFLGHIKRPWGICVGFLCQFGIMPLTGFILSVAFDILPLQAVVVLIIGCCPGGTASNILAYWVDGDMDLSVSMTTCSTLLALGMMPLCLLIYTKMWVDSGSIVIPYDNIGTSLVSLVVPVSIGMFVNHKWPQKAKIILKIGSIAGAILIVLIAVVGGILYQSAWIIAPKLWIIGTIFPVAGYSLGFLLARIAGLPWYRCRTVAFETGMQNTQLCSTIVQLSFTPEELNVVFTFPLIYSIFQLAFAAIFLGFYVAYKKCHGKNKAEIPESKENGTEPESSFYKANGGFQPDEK
Protocol: as §1, §2, §3, §4

OATP1B3 [3] = biological target: T1, OATP1B3
OATP1B1 = biological target: T4, OATP1B1 (Homo sapiens, UniProt Q9Y6L6); assay: in vitro
T4 sequence (Q9Y6L6 1-691): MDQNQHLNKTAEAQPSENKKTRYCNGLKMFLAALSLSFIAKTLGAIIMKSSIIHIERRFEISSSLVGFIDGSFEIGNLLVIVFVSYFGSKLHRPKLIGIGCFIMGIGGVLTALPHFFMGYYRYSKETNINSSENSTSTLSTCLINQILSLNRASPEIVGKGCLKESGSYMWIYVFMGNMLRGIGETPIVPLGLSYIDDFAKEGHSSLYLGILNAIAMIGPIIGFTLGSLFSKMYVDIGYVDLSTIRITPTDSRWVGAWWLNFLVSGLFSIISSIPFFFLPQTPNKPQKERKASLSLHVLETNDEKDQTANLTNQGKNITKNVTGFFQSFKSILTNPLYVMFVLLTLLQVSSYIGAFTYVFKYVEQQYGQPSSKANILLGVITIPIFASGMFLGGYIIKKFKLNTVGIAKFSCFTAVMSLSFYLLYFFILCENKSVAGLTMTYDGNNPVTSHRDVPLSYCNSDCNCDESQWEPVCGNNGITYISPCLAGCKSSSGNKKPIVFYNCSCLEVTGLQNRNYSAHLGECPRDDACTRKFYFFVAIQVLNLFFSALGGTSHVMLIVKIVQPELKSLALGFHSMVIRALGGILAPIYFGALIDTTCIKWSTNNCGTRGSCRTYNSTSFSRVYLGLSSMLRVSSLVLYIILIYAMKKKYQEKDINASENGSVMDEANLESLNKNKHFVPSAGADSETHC

CYP2C8 = biological target: T5, CYP2C8 (Homo sapiens, UniProt P10632); settings: read-out: Positive control IC50; Rosiglitazone hydroxylation; in-house data, similar to the reference values [1]
T5 sequence (P10632 1-490): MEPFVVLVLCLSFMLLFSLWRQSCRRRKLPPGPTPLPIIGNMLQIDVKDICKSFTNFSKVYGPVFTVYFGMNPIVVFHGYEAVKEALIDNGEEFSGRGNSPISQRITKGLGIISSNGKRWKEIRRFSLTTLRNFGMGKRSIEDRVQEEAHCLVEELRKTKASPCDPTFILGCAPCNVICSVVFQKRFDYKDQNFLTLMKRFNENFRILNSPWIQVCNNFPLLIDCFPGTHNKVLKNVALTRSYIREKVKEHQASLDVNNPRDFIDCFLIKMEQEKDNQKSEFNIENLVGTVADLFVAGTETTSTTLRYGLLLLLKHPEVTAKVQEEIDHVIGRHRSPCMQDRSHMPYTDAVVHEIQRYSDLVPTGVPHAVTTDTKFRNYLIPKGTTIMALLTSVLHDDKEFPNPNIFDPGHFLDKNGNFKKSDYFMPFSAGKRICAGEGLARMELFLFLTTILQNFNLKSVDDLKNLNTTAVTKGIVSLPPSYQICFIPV

[4] = amlodipine PBPK model parameter, cited from earlier work
[5] = cited from earlier work
ASBT [6] = biological target: T3, ASBT; settings: inhibition of ASBT, implemented in DDI model; ref [61]; cited from earlier work
[7] = substrate: C[C@H](CCC(=O)O)[C@H]1CC[C@H]2[C@@H]3[C@H](O)C[C@@H]4C[C@H](O)CC[C@]4(C)[C@H]3C[C@H](O)[C@]12C; assay: cells, lysate or membranes named; settings: other: OAT3-mediated MT921 uptake, 5–300 µM, modified Michaelis–Menten fit; 37.0 °C
[8] = Literature, ref [33] (supplement list)

Molecule: C[C@]12CC[C@@H]3c4ccc(O)cc4CC[C@H]3[C@@H]1CC[C@@H]2O[C@@H]1O[C@H](C(=O)O)[C@@H](O)[C@H](O)[C@H]1O
Increase of probe substrate uptake rate in transporter-expressing cells compared to mock cells (OATP1B3 [1]; 0.06 µM probe substrate, HEK 293-OATP1B3): 9.6 fold

IC50 (CYP2E1): 16.7 µM
Molecule: CCN(CC)C(=S)S [Diethyldithio-carbamate]

Molecule: C[C@H](CCC(=O)O)[C@H]1CC[C@H]2[C@@H]3[C@H](O)C[C@@H]4C[C@H](O)CC[C@]4(C)[C@H]3C[C@H](O)[C@]12C [MT921, cholic acid]
Km (OATP1B3 [1]; OATP1B3-mediated MT921 uptake, 5–100 µM, modified Michaelis–Menten fit): 27.4 µM
intrinsic clearance (Vmax/Km) (OATP1B3 [1]; human): 3.46 µL/mg protein/min
Km at 10 min (OATP1B3 [1]; human, Km, OATP1B3-mediated MT921 uptake, 5–100 µM, modified Michaelis–Menten fit): 27.4 µM
Vmax (NTCP; NTCP-mediated MT921 uptake, 5–100 µM): 409.28 pmol/mg protein/min
CLdiffusion (NTCP; passive diffusion clearance, HEK 293-NTCP): 1.27 µL/mg protein/min
Vmax (ASBT [2]): 302.31 pmol/mg protein/min
IC50 (OATP1B3 [3]): 38.3 µM
Ki (OATP1B3 [3]): 38.2 µM
IC50 at 5 min (OATP1B1): 63.2 µM

IC50 (CYP2C8): 8.47 µM
Molecule: O=c1c(O)c(-c2ccc(O)c(O)c2)oc2cc(O)cc(O)c12 [Quercetin]

Molecule: C[C@H](CCC(=O)NCCS(=O)(=O)O)[C@H]1CC[C@H]2[C@@H]3[C@H](O)C[C@@H]4C[C@H](O)CC[C@]4(C)[C@H]3C[C@H](O)[C@]12C [[^3H]taurocholate]
Increase of probe substrate uptake rate in transporter-expressing cells compared to mock cells (NTCP; 0.8 µM probe substrate, HEK 293-NTCP): 102.1 fold

Molecule: CCOC(=O)C1=C(COCCN)NC(C)=C(C(=O)OC)C1c1ccccc1Cl (centres unmarked) [amlodipine]
Fraction unbound [4, 8]: 0.07
Log P [4, 8]: 3.43 Log units
Solubility ([4]; extracted from published literature, no reference given): 75.3 µg/mL (≈ 184 µM)
Cmax Obs ([5]; 2.5 mg po (tab), sd, ref [28] (supplement list)): 1.94 ng/mL
Cmax Obs ([5]; 5 mg po (tab), sd, first line of the study, ref [27] (supplement list)): 3.56 ng/mL
Cmax Obs ([5]; 5 mg po (tab), sd, ref [17] (supplement list)): 2.36 ng/mL
Cmax Obs ([5]; 5 mg po (tab), sd, ref [20] (supplement list)): 3.18 ng/mL
Cmax Obs ([5]; 5 mg po (tab), sd, ref [23] (supplement list)): 2.44 ng/mL
Cmax Obs ([5]; 5 mg po (tab), sd, ref [25] (supplement list)): 2.54 ng/mL
Cmax Obs ([5]; 5 mg po (tab), sd, ref [30] (supplement list)): 3.07 ng/mL
Cmax Obs ([5]; 5 mg po (tab), sd, second line of the study, ref [27] (supplement list)): 3.64 ng/mL
Cmax Obs ([5]; 10 mg po (tab), md, ref [16] (supplement list)): 18.77 ng/mL
Cmax Obs ([5]; 10 mg po (tab), md, ref [21] (supplement list)): 18.73 ng/mL
Cmax Obs ([5]; 10 mg po (tab), sd, first line of the study, ref [22] (supplement list)): 5.32 ng/mL
Cmax Obs ([5]; 10 mg po (tab), sd, ref [17] (supplement list)): 5.13 ng/mL
Cmax Obs ([5]; 10 mg po (tab), sd, ref [18] (supplement list)): 5.51 ng/mL
Cmax Obs ([5]; 10 mg po (tab), sd, ref [19] (supplement list)): 5.40 ng/mL
Cmax Obs ([5]; 10 mg po (tab), sd, ref [20] (supplement list)): 6.85 ng/mL
Cmax Obs ([5]; 10 mg po (tab), sd, ref [24] (supplement list)): 8.13 ng/mL
Cmax Obs ([5]; 10 mg po (tab), sd, ref [26] (supplement list)): 6.41 ng/mL
Cmax Obs ([5]; 10 mg po (tab), sd, ref [29] (supplement list)): 4.92 ng/mL
Cmax Obs ([5]; 10 mg po (tab), sd, second line of the study, ref [22] (supplement list)): 4.37 ng/mL
Ki (ASBT [6]): 42.1 µM

B1: OAT3 (Homo sapiens) (protein)
chain: MTFSEILDRVGSMGHFQFLHVAILGLPILNMANHNLLQIFTAATPVHHCRPPHNASTGPWVLPMGPNGKPERCLRFVHPPNASLPNDTQRAMEPCLDGWVYNSTKDSIVTEWDLVCNSNKLKEMAQSIFMAGILIGGLVLGDLSDRFGRRPILTCSYLLLAASGSGAAFSPTFPIYMVFRFLCGFGISGITLSTVILNVEWVPTRMRAIMSTALGYCYTFGQFILPGLAYAIPQWRWLQLTVSIPFFVFFLSSWWTPESIRWLVLSGKSSKALKILRRVAVFNGKKEEGERLSLEELKLNLQKEISLAKAKYTASDLFRIPMLRRMTFCLSLAWFATGFAYYSLAMGVEEFGVNLYILQIIFGGVDVPAKFITILSLSYLGRHTTQAAALLLAGGAILALTFVPLDLQTVRTVLAVFGKGCLSSSFSCLFLYTSELYPTVIRQTGMGVSNLWTRVGSMVSPLVKITGEVQPFIPNIIYGITALLGGSAALFLPETLNQPLPETIEDLENWSLRAKKPKQEPEVEKASQRIPLQPHGPGLGSS
Km [7]: 133.33 µM
Vmax/Km [7]: 1.28 µL/mg protein/min
